Results published in patent US20210023074A1, “TREATMENT OF DEMYELINATING DISEASES” (Victoria Link Ltd., priority 2018, published 2021).
Where two headings read alike, the source gives them in different places.

Assays:
[1] = test system: experimental autoimmune encephalomyelitis (EAE) mice; experiment: EAE model of MS, daily disease score (paralysis), treatment from day 17; format: in vivo, C57BL/6 mice
Method: Experimental detail: Female, C57BL/6 mice were immunized subcutaneously (s.c.) in the hind flanks to induce EAE using myelin oligodendrocyte glycoprotein (MOG) peptide 35-55 (50 μg/mouse) in complete Freund's adjuvant containing heat-killed Mycobacterium tuberculosis (500 μg/mouse). In addition, pertussis toxin (200 ng/mouse) was administered intraperitoneally (i.p.) on days 0 and 2. Mice were weighed and scored daily. On day 17 (dotted line), mice were started on daily treatment with vehicle only (Veh; 10% tween and 10% DMSO in saline) or Nalmefene (NaIM) at 0.1, 0.03, or 0.01 mg/kg by i.p. injection. Nalmefene was supplied by University of Kansas, Synthetic Chemical Biology Core Laboratory, 97.6% pure by HPLC). Treatment allocation was blinded. The disease was scored from 0-5 with 0 (normal), 1 (partial tail paralysis), 2 (full tail paralysis), 3 (one hind limb paralysed or severe disability in both hind limbs), 4 (complete paralysis of both hind limbs) and 5 (moribund). This model is a standard disease model for multiple sclerosis and is described in White et al. 2018. Scientific Reports. 8:259 which is incorporated herein by reference in its entirety. Shown are results combined from 2 independent experiments. ****p<0.0001 by one-way ANOVA with Dunnett's multiple comparison test.
Experimental detail: EAE was induced in female C57BL/6 mice as described in Example 1. On day 17, mice were started on daily treatment with vehicle only (Veh) or nalmefene (NaIM) at 0.1 or 0.03 mg/kg by i.p. injection. The area under the curve (AUC) was calculated for each mouse based upon the daily disease score and represents the total disability experienced. Shown are results from 1 representative experiment. *p<0.05 by one-way ANOVA with Dunnett's multiple comparison test.
Experimental detail: EAE was induced in female C57BL/6 mice as described in Example 1. On day 17 (dotted line), mice were started on daily treatment with vehicle only (Veh) or nalmefene (NaIM) at 0.1 or 0.03 mg/kg by i.p. injection. Shown are mice that were not sick at the time of treatment but developed disease later. *p<0.05 by two-way ANOVA with Holm-Sidak's multiple comparison test.

[2] = test system: infiltrating immune cells (CD45high) in brain of EAE mice; experiment: Immune cell infiltration into the brain of EAE mice (flow cytometry); format: in vivo, C57BL/6 mice
Method: On day 17, mice were started on daily treatment with vehicle only (Veh) or nalmefene (NaIM) at 0.1 or 0.03 mg/kg by i.p. injection. On day 45 after immunization to induce EAE, mice were culled and immune cells isolated from the brains. Isolation was by Percoll gradient as described in White et al. 2018. Scientific Reports. 8:259. Once isolated, cells were stained with fluorescently labelled antibodies to identify specific immune cell types and analysed by flow cytometry. All infiltrating immune cells were identified by CD45^high expression; CD4 T cells were identified as CD45^highCD4^+, and macrophages as CD45^highCD11b^+Gr-1^−. The relative number of cells is expressed as a ratio to microglia (MG), a brain resident immune cell identified as CD45^mediumCD11b^+. ***p<0.001, **p<0.01, and *p<0.05 by one-way ANOVA with Dunnett's multiple comparison test.
Experimental detail: EAE was induced in female C57BL/6 mice as described in Example 1. […] Once isolated, cells were stained with fluorescently labelled antibodies to identify specific immune cell types and analysed by flow cytometry. […] The relative number of cells is expressed as a ratio to microglia (MG), a brain resident immune cell identified as CD45^mediumCD11b+. ****p<0.0001 and **p<0.01 by one-way ANOVA with Holm-Sidak's multiple comparison test compared to vehicle.

[3] = test system: myelin in spinal cord of EAE mice; experiment: TEM of spinal cord sections from EAE mice (myelination); format: in vivo, C57BL/6 mice; details: 0.03 mg/kg i.p. daily from day 17, day 45
Method: Experimental detail: EAE was induced in female C57BL/6 mice as described in Example 1. On day 17, mice were started on daily treatment with vehicle only or nalmefene at 0.03 mg/kg by i.p. injection. On day 45 after immunization to induce EAE, mice were culled and spinal cords were processed for transmission electron microscopy (TEM).

spinal cord of EAE mice = experiment: Luxol fast blue histology of spinal cord, % demyelination in EAE mice; format: in vivo, C57BL/6 mice; details: 0.01 mg/kg i.p. daily from disease onset, chronic phase
Method: Experimental detail: EAE was induced in female C57BL/6 mice as described in Example 1. On the day of disease onset (score >1), mice were started on daily treatment with vehicle only or nalmefene at 0.01 mg/kg by i.p. injection. During the chronic phase (>24 days post treatment initiation), mice were culled, perfused with 4% paraformaldehyde and spinal cords were processed for histology. […] Shown are the means and standard error of individual values from vehicle (n=7) or 0.01 (n=3) nalmefene-treated EAE mice. *p<0.05 by one-way ANOVA with Holm-Sidak's multiple comparison test.

[4] = test system: Alcohol consumption (Wistar and AA rat); details: cited from earlier work
[5] = treated prior to disease onset, 0.1 or 0.03 mg/kg i.p. daily from day 17
[6] = Alcohol consumption (AA rat), PO

## C=C1CC[C@@]2(O)[C@H]3Cc4ccc(O)c5c4[C@@]2(CCN3CC2CC2)[C@H]1O5 [nalmefene, (4R,4aS,7aS,12bS)-3-(cyclopropylmethyl)-7-methylidene-2,4,5,6,7a,13-hexahydro-1H-4,12-methanobenzofuro[3,2-e]isoquinoline-4a,9-diol]
[1]; 0.1, 0.03 or 0.01 mg/kg i.p. daily from day 17, 45 days
  disease score (recovery from paralysis): reduction of disease in all nalmefene-treated groups indicates recovery from paralysis
[1]; 0.1 and 0.03 mg/kg i.p. daily from day 17, by day 45
  reduction in disease (total disability, AUC of daily disease score): 70%
[1]; 0.1 or 0.03 mg/kg i.p. daily from day 17, by day 45
  total disability (AUC of disease score): significantly lower total disability
[1]; [5]
  onset of disease: did not alter the onset of disease
  recovery from paralysis (disease score): rapid recovery from paralysis
[2]; 0.03 mg/kg i.p. daily from day 17, day 45
  number of infiltrating immune cells in brain (ratio to microglia): significantly reduced the number of infiltrating immune cells
[2]; 0.03 mg/kg i.p. daily from disease onset, chronic phase (>24 days)
  number of infiltrating immune cells in brain (ratio to microglia): significantly reduced the number of infiltrating immune cells
[3]
  myelination of nerve axons in spinal cord (TEM): nerve axons appear healthy and well myelinated
Spinal cord of EAE mice
  % demyelination of spinal cord (luxol fast blue): significant reduction demyelination
[4]; [6]
  ED50: 16.1 μg/kq
  Inhibition (%): 23%
[4]; Alcohol consumption (Wistar and AA rat), SC, 4 days
  Inhibition (%): 73%
[4]; Alcohol consumption (Wistar and AA rat), SC, 26 days
  Inhibition (%): 67%
[4]; Alcohol consumption (Wistar rat), SC, 6 days
  Inhibition (%): 75%
[4]; SC administration, rat
  In vivo efficacy ED50: 0.2 to 0.4 mg/kg
